These results are taken from patent publication US10266549B2, “ULK1 inhibitors and methods using same” (SALK INSTITUTE FOR BIOLOGICAL STUDIES, priority 2014, dated 2019).

Sequence of ULK1 (O75385 whole entry, species assumed): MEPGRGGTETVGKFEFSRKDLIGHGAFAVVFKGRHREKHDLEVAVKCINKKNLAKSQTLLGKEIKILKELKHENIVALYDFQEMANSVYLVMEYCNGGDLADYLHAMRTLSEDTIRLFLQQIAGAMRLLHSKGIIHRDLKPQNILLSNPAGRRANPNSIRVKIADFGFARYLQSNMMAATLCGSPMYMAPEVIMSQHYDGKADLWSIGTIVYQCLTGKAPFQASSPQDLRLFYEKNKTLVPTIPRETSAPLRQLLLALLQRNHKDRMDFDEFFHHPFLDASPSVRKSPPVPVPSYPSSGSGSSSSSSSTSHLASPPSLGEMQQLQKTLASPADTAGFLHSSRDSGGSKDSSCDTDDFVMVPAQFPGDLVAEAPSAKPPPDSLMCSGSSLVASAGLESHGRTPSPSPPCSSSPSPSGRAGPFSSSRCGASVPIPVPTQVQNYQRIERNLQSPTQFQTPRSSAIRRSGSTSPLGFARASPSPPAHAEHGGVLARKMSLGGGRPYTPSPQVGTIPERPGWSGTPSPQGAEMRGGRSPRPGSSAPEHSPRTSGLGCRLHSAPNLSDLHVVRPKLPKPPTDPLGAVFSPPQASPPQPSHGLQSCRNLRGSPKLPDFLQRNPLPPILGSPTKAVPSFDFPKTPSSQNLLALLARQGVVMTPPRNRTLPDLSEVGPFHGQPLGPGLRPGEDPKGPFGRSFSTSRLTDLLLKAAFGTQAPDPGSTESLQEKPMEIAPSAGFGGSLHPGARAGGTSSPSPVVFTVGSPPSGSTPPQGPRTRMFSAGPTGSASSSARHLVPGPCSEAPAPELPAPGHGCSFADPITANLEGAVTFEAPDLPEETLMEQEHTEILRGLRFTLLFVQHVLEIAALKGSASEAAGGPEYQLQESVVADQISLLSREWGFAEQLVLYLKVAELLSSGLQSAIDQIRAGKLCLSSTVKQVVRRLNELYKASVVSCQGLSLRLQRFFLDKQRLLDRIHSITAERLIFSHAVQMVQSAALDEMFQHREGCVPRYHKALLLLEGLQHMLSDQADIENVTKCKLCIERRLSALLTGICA

In the first experiment the test system is PC3 human prostate cells stably expressing GFP-LC3. Nature of the experiment: GFP-LC3 puncta quantification in PC3 cells. The experiment is classed as cell-based. Particulars: PC3 GFP-LC3, control siRNAs, 1 μM mTOR inhibitor for 4 hr. On the procedure: At 48 hr after RNAi transfection, the cells were treated with 1 μM of the catalytic mTOR inhibitors AZD8055 or INK128 for 4 hr and assessed for the presence of GFP-LC3 puncta. The average number of GFPLC3 puncta and SD for each siRNA and drug treatment are shown. SRC, c-Src; c-Src kinase, CSK.
To test the ability of compound 14 to block autophagy and cell survival, initial studies were performed in A549 lung cancer cells, which are highly sensitive to mTOR inhibition. […] Next, we genetically assessed the requirement for ULK1 versus other kinases inhibited by compound 14 to induce autophagy after pharmacological mTOR inhibition. A robust high-throughput microscopy method for quantifying GFP-LC3 puncta was established using a PC3 prostate-cancer cell line stably expressing a GFP-LC3 construct. Using this assay, we performed a focused RNAi analysis of the top 20 kinases identified in the DiscovRx screen as best binding to compound 14. […] Strikingly, of the 18 kinases tested, only one kinase siRNA, ULK1, nearly fully abolished the LC3 puncta induced by the mTOR inhibitors (FIG. 9D).
Take `COc1ccc(-c2ccc3c(N4CCOC[C@@H]4C)nc(N4CCOC[C@@H]4C)nc3n2)cc1CO` [AZD8055, (5-(2,4-bis((S)-3-methylmorpholino)pyrido[2,3-d]pyrimidin-7-yl)-2-methoxyphenyl)methanol, reference compound]: the “induction in GFP-LC3 puncta formation” value is recorded as 2 fold.
For `CC(C)n1nc(-c2ccc3oc(N)nc3c2)c2c(N)ncnc21` [INK128, 3-(2-amino-5-benzoxazolyl)-1-(1-methylethyl)-1H-pyrazolo[3,4-d]pyrimidin-4-amine], the “induction in GFP-LC3 puncta formation” value is reported as 2 fold.

Another experiment has as its target ULK1 (Homo sapiens (Human), UniProt O75385). In words: ULK1 inhibition assay (Table 1). The experiment is classed as biochemical. Particulars: * = tested as a mixture of regioisomers.
A word on the IC50: it is the point on the concentration scale where inhibition reaches its midpoint. For `FC(F)(F)c1cnc(NC2CCC2)nc1NC1CCC1` [168c, N^2,N^4-dicyclobutyl-5-(trifluoromethyl) pyrimidine-2,4-diamine], the half-inhibitory concentration (IC50) fell in the range of 200 to 2000 nM.
Still for that read-out and setting: the same measure for `O=C1CCc2cc(Nc3nc(NC4CCC4)ncc3C(F)(F)F)ccc2N1` [150b, 6-((2-(cyclobutylamino)-5-(trifluoromethyl)pyrimidin-4-yl)amino)-3,4-dihydroquinolin-2(1H)-one]: under 200 nM.
The same measure, in the same setting: for `Clc1cnc(Nc2ccccc2)nc1Nc1ccccc1` [compound 114, 5-chloro-N^2,N^4-diphenylpyrimidine-2,4-diamine] the value was over 2000 nM; for `O=C1CCc2cc(Nc3ncc(C(F)(F)F)c(Nc4cccc5ccccc45)n3)ccc2N1` [126a, 6-((4-(naphthalen-1-ylamino)-5-(trifluoromethyl)pyrimidin-2-yl)amino)-3,4-dihydroquinolin-2(1H)-one], 200 to 2000 nM; for `FC(F)(F)c1cnc(N2CCC2)nc1Nc1ccc2c(c1)OCO2` [166a, 2-(azetidin-1-yl)-N-(benzo[d][1,3]dioxol-5-yl)-5-(trifluoromethyl)pyrimidin-4-amine], over 2000 nM.
The same measure, in the same setting: for `CNC(=O)c1ccccc1Nc1nc(Nc2cc(N3CCOCC3)cc(N3CCOCC3)c2)ncc1Cl` [compound 78, 2-(5-Chloro-2-(3,5-dimorpholinophenylamino)pyrimidin-4-ylamino)-N-methylbenzamide] the value was 200 to 2000 nM; for `COCCNc1ncc(C(F)(F)F)c(Nc2ccc3c(c2)CCC(=O)N3)n1` [151b, 6-((2-((2-methoxyethyl)amino)-5-(trifluoromethyl)pyrimidin-4-yl)amino)-3,4-dihydroquinolin-2(1H)-one], under 200 nM.
For `COc1cc(N2CCOCC2)ccc1Nc1nc(Nc2ccc3c(c2)CCC(=O)N3)ncc1C(F)(F)F` [123a, 6-((4-((2-methoxy-4-morpholinophenyl)amino)-5-(trifluoromethyl)pyrimidin-2-yl)amino)-3,4-dihydroquinolin-2(1H)-one], the half-maximal inhibitory concentration (IC50) was under 200 nM.
Same read-out and setting: the same measure for `CNC(=O)c1ccccc1Nc1nc(Nc2cc3c(cc2C)OCO3)ncc1Cl` [compound 57, 2-(5-Chloro-2-(6-methylbenzo[d][1,3]dioxol-5-ylamino)pyrimidin-4-ylamino)-N-methylbenzamide]: under 200 nM; for `CNC(=O)c1ccccc1Nc1nc(Nc2cc(N3CCOCC3)cc(N3CCOCC3)c2)ncc1C(F)(F)F` [compound 90, 2-(2-(3,5-dimorpholinophenylamino)-5-(trifluoromethyl)pyrimidin-4-ylamino)-N-methylbenzamide]: under 200 nM; for `FC(F)(F)c1cnc(NCC2CC2)nc1Nc1ccc2c(c1)OCO2` [167a, N^4-(benzo[d][1,3]dioxol-5-yl)-N^2-(cyclopropylmethyl)-5-(trifluoromethyl)pyrimidine-2,4-diamine]: under 200 nM.
On to `CNS(=O)(=O)c1ccccc1Nc1nc(Nc2ccc(N3CCOCC3)cc2OC)ncc1Br` [compound 75, 2-(5-Bromo-2-(2-methoxy-4-morpholinophenylamino)pyrimidin-4-ylamino)-N-methylbenzenesulfonamide], for which the IC50 is 200 to 2000 nM.
On the same count and under the same terms, the same measure for `COc1nc(Nc2cccc(C(F)(F)F)c2F)ncc1Br` [compound 172, 5-bromo-N-(2-fluoro-3-(trifluoromethyl)phenyl)-4-methoxy pyrimidin-2-amine]: 200 to 2000 nM; for `CNC(=O)c1ccccc1Nc1ccnc(Nc2cc(OC)c(OC)c(OC)c2)n1` [compound 60, N-Methyl-2-(2-(3,4,5-trimethoxyphenylamino)pyrimidin-4-ylamino)benzamide]: under 200 nM; for `COc1ccc(Nc2nc(Nc3cc(OC)c(OC)c(OC)c3)ncc2Cl)cn1` [compound 24, 5-Chloro-N^4-(6-methoxypyridin-3-yl)-N^2-(3,4,5-trimethoxyphenyl)pyrimidine-2,4-diamine]: under 200 nM.
Same read-out and setting: the same measure for `O=C1CCc2cc(Nc3ncc(C(F)(F)F)c(NC4Cc5ccccc5C4)n3)ccc2N1` [130a, 6-((4-((2,3-dihydro-1H-inden-2-yl)amino)-5-(trifluoromethyl)pyrimidin-2-yl)amino)-3,4-dihydroquinolin-2(1H)-one]: under 200 nM; for `COc1cccc(Nc2ncc(Cl)c(Nc3cccc(OC)c3)n2)c1` [143b, 5-chloro-N^2,N^4-bis(3-methoxyphenyl) pyrimidine-2,4-diamine]: under 200 nM.
Still for that read-out and setting: for `COc1ccc(Nc2nc(Nc3ccc(N4CCOCC4)cc3OC)ncc2Br)cn1` [compound 28, 5-Bromo-N^2-(2-methoxy-4-morpholinophenyl)-N^4-(6-methoxypyridin-3-yl)pyrimidine-2,4-diamine] the value was 200 to 2000 nM; for `COc1cccc(Nc2nc(Nc3ccc4c(c3)CCC(=O)N4)ncc2Br)c1` [compound 142, 6-((5-bromo-4-((3-methoxyphenyl)amino)pyrimidin-2-yl)amino)-3,4-dihydroquinolin-2(1H)-one], under 200 nM; for `CNC(=O)c1ccccc1Oc1nc(Nc2cc(OC)ccc2C)ncc1C(F)(F)F` [compound 101, 2-((2-((5-methoxy-2-methylphenyl)amino)-5-(trifluoromethyl)pyrimidin-4-yl)oxy)-N-methylbenzamide], over 2000 nM.
For the compound `O=C1CCc2cc(Nc3ncc(C(F)(F)F)c(Nc4ccc5c(c4)CCC5)n3)ccc2N1` [compound 129, 6-((4-((2,3-dihydro-1H-inden-5-yl)amino)-5-(trifluoromethyl)pyrimidin-2-yl)amino)-3,4-dihydroquinolin-2(1H)-one], the 50% inhibitory concentration (IC50) is under 200 nM.
Still for that read-out and setting: the same measure for `CNC(=O)c1ccccc1Oc1nc(Nc2cc(Br)ccc2C)ncc1Br` [compound 112, 2-((5-bromo-2-((5-bromo-2-methylphenyl)amino)pyrimidin-4-yl)oxy)-N-methylbenzamide]: over 2000 nM.
Turning to `COCCNc1nc(Nc2ccc3c(c2)CCC(=O)N3)ncc1C(F)(F)F` [151a, 6-((4-((2-methoxyethyl)amino)-5-(trifluoromethyl)pyrimidin-2-yl)amino)-3,4-dihydroquinolin-2(1H)-one], the IC50 was under 200 nM.
On the same count and under the same terms, the same measure for `COc1ccc(OC)c(Nc2ncc(C(F)(F)F)c(O)n2)c1` [109b, 2-((2,5-dimethoxyphenyl)amino)-5-(trifluoromethyl)pyrimidin-4-ol]: over 2000 nM; for `COc1cccc(Nc2nc(Nc3ccc4c(c3)CCC(=O)N4)ncc2Cl)c1` [143a, 6-((5-chloro-4-((3-methoxyphenyl)amino)pyrimidin-2-yl)amino)-3,4-dihydroquinolin-2(1H)-one]: under 200 nM.

In the next experiment the test system is A549 lung cancer cells. Nature of the experiment: AnnexinV apoptosis analysis in A549 cells with mTOR inhibitor. Particulars: AZD8055 alone, 1 micromolar. The experiment is classed as cell-based. On the procedure:
A549 cells (ATCC #CCL185) and MEFs were seeded at a concentration of 2.5×10^5 cells/mL (i.e., 750,000 cells per 6 cm dish), grown overnight (18 hrs) and treated as indicted in the figure legends. Unless otherwise indicated, “starvation” is EBSS and “control” is DMEM with full serum for indicated timepoints. Samples for western blot were washed once in 1× ice cold PBS and lysed in boiling SDS lysis buffer (10 mM Tris […], 100 mM NaCl, 1% SDS). After trituration, lysates were equilibrated for protein levels using the BCA method (Pierce) and resolved on 8 to 15% SDS-PAGE gels, depending on the size of the protein. PVDF membranes were probed with indicated antibodies overnight according to the manufacturers instructions.
For flow cytometry analysis, cells were collected at the appropriate time point, washed once in PBS, trypsinized and pelleted. For Annexin V staining, cells were washed in 1× Annexin V buffer and treated as described by the Annexin V staining protocol (BD Pharmingen, San Diego, Calif.). Briefly, cells were resuspended in Annexin V buffer to a concentration of one million per mL, 100,000 cells were then stained with 5 μL of phycoerythrin (PE)-conjugated Annexin V antibody (BD Pharmingen, San Diego, Calif.) and 5 μL of 7-amino-actinomycin D (7AAD) and then incubated at room temperature for 15 minutes. 400 μL of Annexin V buffer was then added to each sample with gentle mixing. Stained cells were analyzed using a FACScan flow cytometer (Becton Dickinson, San Jose, Calif.). Flow cytometry data was analyzed using FlowJo 8.6 software (Tree Star Inc., Ashland, Oreg.).
There has been great interest in the role of autophagy in the survival of tumor cells, particular tumor cells faced with metabolic stress from chemotherapies or targeted therapeutics. We next examined whether compound 14 would promote apoptosis in tumor cells similar to the MEFs, selectively under conditions in which autophagy is actively engaged. […] Given that mTOR activity is a dominant regulator of ULK1 activity, and we previously noted that treatment of cells with mTOR catalytic inhibitors was sufficient to induce ULK1 activity, we examined the effect of adding in the ULK1 inhibitor in the context of treatment with mTOR catalytic inhibitors. Using a cell line well-established to be sensitive to mTORC1 inhibition, A549 lung cancer cells, we treated with escalating doses of ULK1 inhibitor while keeping a constant cytostatic growth arrest-inducing 1 micromolar dose of the mTOR catalytic inhibitor AZD8055. We observed that 5 μM compound 14 in combination with AZD8055 triggered apoptosis in 22% of A549 cells compared to 9% of the 5 μM compound 14 alone or 6% of those cells treated with AZD8055 alone. […]
Regarding `COc1ccc(-c2ccc3c(N4CCOC[C@@H]4C)nc(N4CCOC[C@@H]4C)nc3n2)cc1CO` [AZD8055, (5-(2,4-bis((S)-3-methylmorpholino)pyrido[2,3-d]pyrimidin-7-yl)-2-methoxyphenyl)methanol, reference compound], the “apoptosis, % of A549 cells” value was determined as 6%.
